From US12357711B2, “PSMA binding dual mode radiotracer and therapeutic” (Technische Universität München, priority 2019, dated 2025)

System: SCID mice
Assay: Preclinical dosimetry from biodistribution in mice, extrapolated to 70-kg Standard Adult (OLINDA/EXM 1.0)
Format: in vivo
Details: 1.0 h bladder voiding interval
Protocol: 3-5 mice were injected per timepoint with a mean 25.6±3.6 MBq of 18F-rhPSMA-7 and 28.5±4.8 MBq of 18F-rhPSMA-7.3, respectively. Mice, severe combined immunodeficiency (SCID) were used for the experiments.
Mice were sacrificed at the following timepoints: • ^18F-rhPSMA-7: 10, 20, 40, 60, 120 and 180 minutes after administration. • ^18F-rhPSMA-7.3: 10, 60, 120, 180 and 300 minutes after administration.
Urine, blood, heart, lung, spleen, pancreas, liver, stomach (emptied), small intestine (emptied), large intestine (emptied), kidneys, bladder, testis, fat, muscle (partial, femoral), femur, tail and brain. Urine was collected with a pipette in the CO2 gas chamber. In case of missing urination in the chamber the bladder was aspirated with an insulin syringe. Blood was withdrawn instantly after sacrifice with an insulin syringe from the heart. All other tissues and organs were dissected and transferred directly in plastic containers.
The counting rates of measurement samples were automatically corrected for decay. The radioactivity distribution ratios (unit: percentage of the injected dose (% ID) in the measurement samples were determined using the equation below. The sum of the counting rates from all measurement samples obtained from one mouse was designated as the counting rate for administrated radioactivity.
The radioactivity distribution ratio per unit weight of the measurement sample (unit: % ID/g) excluding urine and feces samples was determined by using the equation below. The weight of the measurement sample was determined by subtraction of the empty measurement container from the container including the sample.
For consistency of statistical calculations for each radiotracer the same number of time-points for ^18F-rhPSMA-7 and ^18F-rhPSMA-7.3 was used. Therefore, for ^18F-rhPSMA-7 the 10 min and 20 min time points were combined creating a 15 min endpoint.
The time-integral of activity for the accumulation in the significant source organs (AUCs) were generated both with numerical integration and physical decay according to J Juan et al., Journal of Pharmaceutical Sciences, 1993, 82:762-763.
In brief, to calculate a human dosimetry from the biodistribution in the mice, an extrapolation was necessary to account for the differences between the animals and humans. Normal-organ radiation doses were estimated for the 70-kg Standard Adult anatomic model using time-depending organ activity concentrations (in percent of the injected dose per gram, % ID/g) and total-body activities measured in the biodistribution studies in mice.
Tissue activity concentrations in mice were converted to tissue fractional activities in the 70-kg Standard Adult using the relative fractional organ masses in the Standard Adult and the “standard” 25-gramm mouse. Time-dependent total-body activity was fit to an exponential function and the difference between the injected activity and the total-body activity was assumed to be excreted to the urine because activity concentrations in the liver and GI tracer were low at all time points studied.
Organ residence time was calculated by numerical integration using the trapezoidal rule and the rest-of-body ^18F residence times was calculated as the difference between the total-body residence time and the sum of the organ and urine residence times. The bladder contents residence time was estimated using the dynamic voiding model in the OLINDA/EXM 1.0 dosimetry software. Finally, the Standard Adult mean organ dose equivalents (in mSv/MBq) and effective dose (also in mSv/MBq) were then calculated using OLIN DA/EXM 1.0.
Final calculation of radiation absorbed dose and dosimetry from biodistribution in mice: The tissues or organs in which a significant accumulation of radioactivity occurs (i.e., source organ) were kidney, spleen, lung, liver and heart. With respect to activity accumulation and clearance, a rapid clearance from blood and clearance to urine but relatively slow build-up in kidney was found.

## [^19F][^natGa]D/L-Dap-R/S-DOTAGA-rhPSMA7 [rhPSMA7-rac]
  Adrenals ED Cont.: 3.79E−05 mSv/MBq
  Adrenals EDE Cont.: 0.00E000 mSv/MBq
  Adrenals dose Alpha: 0.00E000 mSv/MBq
  Adrenals dose Beta: 1.95E−03 mSv/MBq
  Adrenals dose Photon: 5.64E−03 mSv/MBq
  Adrenals dose Total: 7.59E−03 mSv/MBq
  Brain ED Cont.: 2.24E−05 mSv/MBq
  Brain EDE Cont.: 0.00E000 mSv/MBq
  Brain dose Alpha: 0.00E000 mSv/MBq
  Brain dose Beta: 1.95E−03 mSv/MBq
  Brain dose Photon: 2.54E−03 mSv/MBq
  Brain dose Total: 4.49E−03 mSv/MBq
  Breasts ED Cont.: 2.10E−04 mSv/MBq
  Breasts EDE Cont.: 6.30E−04 mSv/MBq
  Breasts dose Alpha: 0.00E000 mSv/MBq
  Breasts dose Beta: 1.95E−03 mSv/MBq
  Breasts dose Photon: 2.25E−03 mSv/MBq
  Breasts dose Total: 4.20E−03 mSv/MBq
  Gallbladder Wall ED Cont.: 0.00E000 mSv/MBq
  Gallbladder Wall EDE Cont.: 0.00E000 mSv/MBq
  Gallbladder Wall dose Alpha: 0.00E000 mSv/MBq
  Gallbladder Wall dose Beta: 1.95E−03 mSv/MBq
  Gallbladder Wall dose Photon: 4.96E−03 mSv/MBq
  Gallbladder Wall dose Total: 6.91E−03 mSv/MBq
  Heart Wall ED Cont.: 0.00E000 mSv/MBq
  Heart Wall EDE Cont.: 0.00E000 mSv/MBq
  Heart Wall dose Alpha: 0.00E000 mSv/MBq
  Heart Wall dose Beta: 8.82E−04 mSv/MBq
  Heart Wall dose Photon: 3.48E−03 mSv/MBq
  Heart Wall dose Total: 4.36E−03 mSv/MBq
  Kidneys ED Cont.: 3.23E−04 mSv/MBq
  Kidneys EDE Cont.: 3.88E−03 mSv/MBq
  Kidneys dose Alpha: 0.00E000 mSv/MBq
  Kidneys dose Beta: 4.70E−02 mSv/MBq
  Kidneys dose Photon: 1.76E−02 mSv/MBq
  Kidneys dose Total: 6.47E−02 mSv/MBq
  LLI Wall ED Cont.: 1.10E−03 mSv/MBq
  LLI Wall EDE Cont.: 5.52E−04 mSv/MBq
  LLI Wall dose Alpha: 0.00E000 mSv/MBq
  LLI Wall dose Beta: 1.95E−03 mSv/MBq
  LLI Wall dose Photon: 7.25E−03 mSv/MBq
  LLI Wall dose Total: 9.20E−03 mSv/MBq
  Liver ED Cont.: 2.01E−04 mSv/MBq
  Liver EDE Cont.: 0.00E000 mSv/MBq
  Liver dose Alpha: 0.00E000 mSv/MBq
  Liver dose Beta: 6.35E−04 mSv/MBq
  Liver dose Photon: 3.39E−03 mSv/MBq
  Liver dose Total: 4.02E−03 mSv/MBq
  Lungs ED Cont.: 5.11E−04 mSv/MBq
  Lungs EDE Cont.: 5.11E−04 mSv/MBq
  Lungs dose Alpha: 0.00E000 mSv/MBq
  Lungs dose Beta: 1.25E−03 mSv/MBq
  Lungs dose Photon: 3.01E−03 mSv/MBq
  Lungs dose Total: 4.26E−03 mSv/MBq
  Muscle ED Cont.: 2.98E−05 mSv/MBq
  Muscle EDE Cont.: 0.00E000 mSv/MBq
  Muscle dose Alpha: 0.00E000 mSv/MBq
  Muscle dose Beta: 1.95E−03 mSv/MBq
  Muscle dose Photon: 4.01E−03 mSv/MBq
  Muscle dose Total: 5.96E−03 mSv/MBq
  Osteogenic Cells ED Cont.: 8.27E−05 mSv/MBq
  Osteogenic Cells EDE Cont.: 2.48E−04 mSv/MBq
  Osteogenic Cells dose Alpha: 0.00E000 mSv/MBq
  Osteogenic Cells dose Beta: 4.18E−03 mSv/MBq
  Osteogenic Cells dose Photon: 4.09E−03 mSv/MBq
  Osteogenic Cells dose Total: 8.27E−03 mSv/MBq
  Ovaries ED Cont.: 1.83E−03 mSv/MBq
  Ovaries EDE Cont.: 2.29E−03 mSv/MBq
  Ovaries dose Alpha: 0.00E000 mSv/MBq
  Ovaries dose Beta: 1.95E−03 mSv/MBq
  Ovaries dose Photon: 7.21E−03 mSv/MBq
  Ovaries dose Total: 9.16E−03 mSv/MBq
  Pancreas ED Cont.: 3.90E−05 mSv/MBq
  Pancreas EDE Cont.: 0.00E000 mSv/MBq
  Pancreas dose Alpha: 0.00E000 mSv/MBq
  Pancreas dose Beta: 1.95E−03 mSv/MBq
  Pancreas dose Photon: 5.86E−03 mSv/MBq
  Pancreas dose Total: 7.80E−03 mSv/MBq
  Red Marrow ED Cont.: 6.82E−04 mSv/MBq
  Red Marrow EDE Cont.: 6.82E−04 mSv/MBq
  Red Marrow dose Alpha: 0.00E000 mSv/MBq
  Red Marrow dose Beta: 1.39E−03 mSv/MBq
  Red Marrow dose Photon: 4.29E−03 mSv/MBq
  Red Marrow dose Total: 5.68E−03 mSv/MBq
  Skin ED Cont.: 4.32E−05 mSv/MBq
  Skin EDE Cont.: 0.00E000 mSv/MBq
  Skin dose Alpha: 0.00E000 mSv/MBq
  Skin dose Beta: 1.95E−03 mSv/MBq
  Skin dose Photon: 2.38E−03 mSv/MBq
  Skin dose Total: 4.32E−03 mSv/MBq
  Small Intestine ED Cont.: 3.87E−05 mSv/MBq
  Small Intestine EDE Cont.: 0.00E000 mSv/MBq
  Small Intestine dose Alpha: 0.00E000 mSv/MBq
  Small Intestine dose Beta: 1.95E−03 mSv/MBq
  Small Intestine dose Photon: 5.79E−03 mSv/MBq
  Small Intestine dose Total: 7.73E−03 mSv/MBq
  Spleen ED Cont.: 1.29E−04 mSv/MBq
  Spleen EDE Cont.: 1.55E−03 mSv/MBq
  Spleen dose Alpha: 0.00E000 mSv/MBq
  Spleen dose Beta: 1.59E−02 mSv/MBq
  Spleen dose Photon: 9.90E−03 mSv/MBq
  Spleen dose Total: 2.58E−02 mSv/MBq
  Stomach Wall ED Cont.: 7.98E−04 mSv/MBq
  Stomach Wall EDE Cont.: 0.00E000 mSv/MBq
  Stomach Wall dose Alpha: 0.00E000 mSv/MBq
  Stomach Wall dose Beta: 1.95E−03 mSv/MBq
  Stomach Wall dose Photon: 4.70E−03 mSv/MBq
  Stomach Wall dose Total: 6.65E−03 mSv/MBq
  Testes ED Cont.: 0.00E000 mSv/MBq
  Testes EDE Cont.: 0.00E000 mSv/MBq
  Testes dose Alpha: 0.00E000 mSv/MBq
  Testes dose Beta: 1.95E−03 mSv/MBq
  Testes dose Photon: 5.09E−03 mSv/MBq
  Testes dose Total: 7.03E−03 mSv/MBq
  Thymus ED Cont.: 2.57E−05 mSv/MBq
  Thymus EDE Cont.: 0.00E000 mSv/MBq
  Thymus dose Alpha: 0.00E000 mSv/MBq
  Thymus dose Beta: 1.95E−03 mSv/MBq
  Thymus dose Photon: 3.20E−03 mSv/MBq
  Thymus dose Total: 5.15E−03 mSv/MBq
  Thyroid ED Cont.: 2.59E−04 mSv/MBq
  Thyroid EDE Cont.: 1.55E−04 mSv/MBq
  Thyroid dose Alpha: 0.00E000 mSv/MBq
  Thyroid dose Beta: 1.95E−03 mSv/MBq
  Thyroid dose Photon: 3.23E−03 mSv/MBq
  Thyroid dose Total: 5.17E−03 mSv/MBq
  Total Body ED Cont.: 0.00E000 mSv/MBq
  Total Body EDE Cont.: 0.00E000 mSv/MBq
  Total Body dose Alpha: 0.00E000 mSv/MBq
  Total Body dose Beta: 2.27E−03 mSv/MBq
  Total Body dose Photon: 3.93E−03 mSv/MBq
  Total Body dose Total: 6.19E−03 mSv/MBq
  ULI Wall ED Cont.: 3.64E−05 mSv/MBq
  ULI Wall EDE Cont.: 0.00E000 mSv/MBq
  ULI Wall dose Alpha: 0.00E000 mSv/MBq
  ULI Wall dose Beta: 1.95E−03 mSv/MBq
  ULI Wall dose Photon: 5.33E−03 mSv/MBq
  ULI Wall dose Total: 7.27E−03 mSv/MBq
  Urinary Bladder Wall ED Cont.: 5.76E−03 mSv/MBq
  Urinary Bladder Wall EDE Cont.: 6.92E−03 mSv/MBq
  Urinary Bladder Wall dose Alpha: 0.00E000 mSv/MBq
  Urinary Bladder Wall dose Beta: 7.87E−02 mSv/MBq
  Urinary Bladder Wall dose Photon: 3.66E−02 mSv/MBq
  Urinary Bladder Wall dose Total: 1.15 E−01 mSv/MBq
  Uterus ED Cont.: 6.56E−05 mSv/MBq
  Uterus EDE Cont.: 7.87E−04 mSv/MBq
  Uterus dose Alpha: 0.00E000 mSv/MBq
  Uterus dose Beta: 1.95E−03 mSv/MBq
  Uterus dose Photon: 1.12E−02 mSv/MBq
  Uterus dose Total: 1.31E−02 mSv/MBq
